Test results as given in patent publication US20250163119A1, “COMPOUNDS FOR THE TREATMENT OF DIABETES OR OBESITY” (Eli Lilly and Company, priority 2023, published 2025).
*1 amine or outer side, *2 acyl side, *3 side chain or, on linkers, in order; H or OH if unused. Where a SMILES comes first, the peptide text is derived from it. Side-chain parts run from the residue outwards. [ ]: non-standard residue; d: D form. The star is where a group is joined. C20 diacid = O=C(O)CCCCCCCCCCCCCCCCCCC(=O)*; γGlu = O=C(O)[C@H](CCC(=O)[*:2])N[*:1]; NMeI = CC[C@H](C)[C@H](NC)C(=O)O; αMeL = CC(C)C[C@](C)(N)C(=O)O; AEEA = NCCOCCOCC(=O)O

Assays:
[1] = target: T1, CRHR1 receptor (Y79 cells) (Homo sapiens, UniProt P34998); test: Human Y79 cAMP assay (native cell line expressing endogenous CRHR1); format: cell-based; conditions: human Y79 cells (CRHR1, no detectable CRHR2); mean ± SE
T1 construct: host or cells: Y79 human retinoblastoma cells
T1 sequence (P34998 24-415): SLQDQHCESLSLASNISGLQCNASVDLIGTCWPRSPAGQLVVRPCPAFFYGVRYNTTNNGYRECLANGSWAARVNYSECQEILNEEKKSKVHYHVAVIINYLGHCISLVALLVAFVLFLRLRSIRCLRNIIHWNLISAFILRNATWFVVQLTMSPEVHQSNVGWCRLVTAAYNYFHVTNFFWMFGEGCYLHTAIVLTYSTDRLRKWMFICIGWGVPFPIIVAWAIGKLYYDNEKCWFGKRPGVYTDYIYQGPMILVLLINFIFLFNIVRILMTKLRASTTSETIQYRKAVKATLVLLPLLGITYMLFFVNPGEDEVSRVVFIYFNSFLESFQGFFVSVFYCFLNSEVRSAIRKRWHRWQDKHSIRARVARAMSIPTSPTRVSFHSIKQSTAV
Description: Y79 cells, a human retinoblastoma cell line, express a high level of human CRHR1 with no detectable CRHR2. A7r5 cells, a rat aortic smooth muscle cell line, only express CRHR2 receptor with no detectable CRHR1. The rat CRHR2 gene shares 93% homology of nucleotides sequences with human CRHR2 and responds to human UCN2. Therefore, these two native cell lines were used for additional characterization of polypeptide selectivity.
Y79 cells were grown in a suspension culture as recommended by ATCC in the media containing RPMI (Gibco Cat #11875093) and 20% FBS (Gibco dialyzed Cat #26400044). Y79 cells were incubated at 37° C. with 5% CO2. A subcultivation was performed by removing the supernatant after centrifugation and suspending the cell pellet in fresh medium (A subcultivation ratio was 1:5). […]
The amount of intracellular cAMP was quantitated using HTRF technology (Homogeneous Time Resolved Fluorescence; Cisbio) as per vendor instructions. […] The HTRF signal was immediately detected using an Envision plate reader (Perkin-Elmer) to calculate the ratio of fluorescence at 665 to 620 nm. […]
Raw fluorescence data for concentration curves of the peptides in Table 2 and Table 3 were converted to cAMP amount (pmol/well) using a cAMP standard curve generated for each experiment.

[2] = Association state determination by Sedimentation Velocity Analytical UltraCentrifugation (SV-AUC); format: physicochemical
Description: SV-AUC was performed at 20° C. using a Beckman Optima with AN 60 Ti rotor and final rotor speed of 60,000 rpm. Peptides were dialyzed into 5 mM phosphate pH 7 or 1× phosphate buffered saline (PBS) pH 7.2. Samples were adjusted to the desired concentration (0.1 mg/mL, 1 mg/mL, or 10 mg/mL) using relevant buffer as needed. Both samples and buffer were passed through […] PVDF centrifugal filter units. The filtered samples were loaded into the sample sectors of the cells; filtered buffer alone was loaded in the reference sector of the cells. A Wavelength Scan was performed as the first step to choose a suitable lambda […] value for the given compound with 1-1.2 OD at the concentration(s) tested; this value was generally between 225 nm and 254 nm and used for Method Scan in the next step. In the Method Scan, both absorbance and interference detection modules were used. Temperature equilibration was set as first stage with 0 rpm rotor speed for 3 hours. Sedimentation velocity was set as second stage with rotor speed at 60,000 rpm. 300 scans with frequency of 60 seconds or 500 scan counts with frequency of 120 seconds were performed at the designated wavelength. Data were analyzed with SEDFIT software wherein a continuous c(s) distribution model was applied; the setting of relevant parameters is shown in Table 4 and Table 5; sedimentation coefficient (s) values were reported in Svedherg units (S).
The experiment to characterize a compound comprising SEQ ID NO:54 was performed at 300 scan counts with frequency of 60 seconds; for all other tested polypeptides, the experiments were performed at 500 scan counts with frequency of 120 seconds.

[3] = 0.1 mg/mL, 1x PBS, pH 7.2, 20° C.

| Compound | EC50 [1] [pM] | Mw (SEDFIT), apparent molecular weight [2, 3] [Da] | Sedimentation Coefficient [2, 3] [S] | Sedimentation Coefficient species (% of total) [2, 3] [%] | self-association state from sedimentation coefficients ([2]; 0.1, 1 and 10 mg/mL for SEQ ID NO:54) |
| --- | --- | --- | --- | --- | --- |
| CC[C@H](C)[C@H](NC)C(=O)N[C@H](C(=O)N[C@H](C(=O)N[C@@H](CO)C(=O)N[C@@H](CC(C)C)C(=O)N[C@@H](CC(=O)O)C(=O)N[C@H](C(=O)N1CCC[C@H]1C(=O)N[C@H](C(=O)NCC(=O)N[C@@](C)(CC(C)C)C(=O)N[C@@H](CC(C)C)C(=O)N[C@@H](CCC(N)=O)C(=O)N[C@@H](CCCCN)C(=O)N[C@@H](CC(C)C)C(=O)N[C@H](C(=O)N[C@@H](CCC(=O)O)C(=O)N[C@@H](CCC(N)=O)C(=O)N[C@@H](CCC(=O)O)C(=O)N[C@@H](CCCCN)C(=O)N[C@@H](CCC(N)=O)C(=O)N[C@@H](CCC(=O)O)C(=O)N[C@@H](CCCCN)C(=O)N[C@@H](CCC(=O)O)C(=O)N[C@@H](CCCCN)C(=O)N[C@@H](CCC(N)=O)C(=O)N[C@@H](CCC(N)=O)C(=O)N[C@@H](C)C(=O)N[C@@H](CCCCNC(=O)COCCOCCNC(=O)COCCOCCNC(=O)CC[C@H](NC(=O)CCCCCCCCCCCCCCCCCCC(=O)O)C(=O)O)C(=O)N[C@@H](CCC(=O)O)C(=O)N[C@@H](CC(N)=O)C(=O)N[C@H](C(=O)N[C@@H](CCC(=O)O)C(=O)N[C@H](C(=O)N[C@@H](CC(C)C)C(=O)N[C@@H](C)C(=O)N[C@@H](CCC(N)=O)C(=O)N[C@H](C(N)=O)C(C)C)[C@@H](C)CC)[C@@H](C)O)[C@@H](C)CC)[C@@H](C)CC)C(C)C)[C@@H](C)O)C(C)C [SEQ ID NO: 49, (NMeI) VTSLDVPIG αMeL LQKLIEQEKQEKEKQQAK((2-[2-(2-Amino-ethoxy)-ethoxy]-acetyl)2-γE-CO-(CH2)18-CO2H)ENTEILAQV-NH2] (H-[NMeI]VTSLDVPIG[αMeL]LQKLIEQEKQEKEKQQAK([AEEA-AEEA-γGlu-C20 diacid])ENTEILAQV-NH2) | > 1e+07 | – | – | – | – |
| CC[C@H](C)[C@H](NC)C(=O)N[C@H](C(=O)N[C@H](C(=O)N[C@@H](CO)C(=O)N[C@@H](CC(C)C)C(=O)N[C@@H](CC(=O)O)C(=O)N[C@H](C(=O)N1CCC[C@H]1C(=O)N[C@H](C(=O)NCC(=O)N[C@@](C)(CC(C)C)C(=O)N[C@@H](CC(C)C)C(=O)N[C@@H](CCC(N)=O)C(=O)N[C@@H](CCCCN)C(=O)N[C@@H](CC(C)C)C(=O)N[C@@H](CC(C)C)C(=O)N[C@@H](CCC(=O)O)C(=O)N[C@@H](CCC(N)=O)C(=O)N[C@@H](CCC(=O)O)C(=O)N[C@@H](CCCNC(=N)N)C(=O)N[C@@H](C)C(=O)N[C@@H](CCC(=O)O)C(=O)N[C@@H](CCCCN)C(=O)N[C@@H](C)C(=O)N[C@@H](CCCNC(=N)N)C(=O)N[C@@H](CCC(N)=O)C(=O)N[C@@H](CCC(N)=O)C(=O)N[C@@H](C)C(=O)N[C@@H](CCCCNC(=O)COCCOCCNC(=O)COCCOCCNC(=O)CC[C@H](NC(=O)CCCCCCCCCCCCCCCCCCC(=O)O)C(=O)O)C(=O)N[C@@H](CCC(=O)O)C(=O)N[C@@H](C)C(=O)N[C@@H](C)C(=O)N[C@@H](CCC(=O)O)C(=O)N[C@H](C(=O)N[C@@H](CC(C)C)C(=O)N[C@@H](C)C(=O)N[C@@H](CCC(N)=O)C(=O)N[C@H](C(N)=O)C(C)C)[C@@H](C)CC)[C@@H](C)CC)C(C)C)[C@@H](C)O)C(C)C [SEQ ID NO: 50, (NMeI) VTSLDVPIG αMeL LQKLLEQERAEKARQQAK((2-[2-(2-Amino-ethoxy)-ethoxy]-acetyl)2-γE-CO-(CH2)18-CO2H)EAAEILAQV-NH2] (H-[NMeI]VTSLDVPIG[αMeL]LQKLLEQERAEKARQQAK([AEEA-AEEA-γGlu-C20 diacid])EAAEILAQV-NH2) | > 1e+07 | – | – | – | – |
| CC[C@H](C)[C@H](NC)C(=O)N[C@H](C(=O)N[C@@H](CC(C)C)C(=O)N[C@@H](CO)C(=O)N[C@@H](CC(C)C)C(=O)N[C@@H](CC(=O)O)C(=O)N[C@H](C(=O)N1CCC[C@H]1C(=O)N[C@H](C(=O)NCC(=O)N[C@@H](CC(C)C)C(=O)N[C@@H](CC(C)C)C(=O)N[C@@H](CCC(N)=O)C(=O)N[C@H](C(=O)N[C@@H](CC(C)C)C(=O)N[C@@H](CC(C)C)C(=O)N[C@@H](CCC(=O)O)C(=O)N[C@@H](CCC(N)=O)C(=O)N[C@@H](CCC(=O)O)C(=O)N[C@@H](CCCCN)C(=O)N[C@@H](CCC(N)=O)C(=O)N[C@@H](CCC(=O)O)C(=O)N[C@@H](CCCCN)C(=O)N[C@@H](CCC(=O)O)C(=O)N[C@@H](CCCCN)C(=O)N[C@@H](CCC(N)=O)C(=O)N[C@@H](CCC(N)=O)C(=O)N[C@@H](C)C(=O)N[C@@H](CCCCNC(=O)COCCOCCNC(=O)COCCOCCNC(=O)CC[C@H](NC(=O)CC[C@H](NC(=O)CCCCCCCCCCCCCCCCCCC(=O)O)C(=O)O)C(=O)O)C(=O)N[C@H](C(=O)N[C@@H](CC(N)=O)C(=O)N[C@@H](C)C(=O)N[C@@H](CCC(N)=O)C(=O)N[C@H](C(=O)N[C@@H](CC(C)C)C(=O)N[C@@H](C)C(=O)N[C@@H](CCC(N)=O)C(=O)N[C@H](C(N)=O)C(C)C)[C@@H](C)CC)[C@@H](C)O)[C@@H](C)CC)[C@@H](C)CC)C(C)C)C(C)C [SEQ ID NO: 54] (H-[NMeI]VLSLDVPIGLLQILLEQEKQEKEKQQAK([AEEA-AEEA-γGlu-γGlu-C20 diacid])TNAQILAQV-NH2) | – | 38787 | 3.5 | 89 | higher order oligomers were the major species |
